Structures can show the parent of a compound that is named as a salt. Where two headings read alike, the source gives them in different places.
What was measured:
PDK1 = PDK1 (Homo sapiens (Human), UniProt O15530); assay: PDK1 kinase assay (coupled PDK1/AKT/FAM-crosstide assay, IMAP fluorescence polarization); assay type: biochemical
Outline: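 Inhibition is derived by 4-parameter fitting of ΔmP from an IMAP fluorescence polarization read of FAM-crosstide (100 nM) phosphorylation. The cascade ran 30 min at 25 °C with 40 μM ATP, using insect-cell GST-PDK1 51-359 (0.75 nM) driving 10 nM unphosphorylated AKT2 140-467-PIFtide fusion.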

[1] = tested on: phospho-akt (Thr308) in PC-3 cells; assay: Inhibition of phospho-akt (Thr308) in PC-3 cells, MSD phospho-akt 308 ELISA kit; assay type: cell-based; details: 2 hours, no serum, read-out: EC50
Outline: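 Phospho-Akt (Thr308) levels were measured by MSD ELISA after PC-3 cells received compound for 2 hours in serum-free medium. Controls: DMSO (high), 5 μM wortmannin (low).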

[2] = Homo sapiens, inhibition of P308 Akt in PC-3 cells using MSD
[3] = inhibition of phospo-PDK1 in vitro
[4] = Homo sapiens, inhibition of P308 Akt in PC-3 cells, MSD
[5] = inhibition of P308 Akt in PC-3 cells using MSD
[6] = Homo sapiens, PC-3, 2 h, inhibition of P308 Akt in PC-3 cells using MSD

Chain of PDK1 (O15530 51-359): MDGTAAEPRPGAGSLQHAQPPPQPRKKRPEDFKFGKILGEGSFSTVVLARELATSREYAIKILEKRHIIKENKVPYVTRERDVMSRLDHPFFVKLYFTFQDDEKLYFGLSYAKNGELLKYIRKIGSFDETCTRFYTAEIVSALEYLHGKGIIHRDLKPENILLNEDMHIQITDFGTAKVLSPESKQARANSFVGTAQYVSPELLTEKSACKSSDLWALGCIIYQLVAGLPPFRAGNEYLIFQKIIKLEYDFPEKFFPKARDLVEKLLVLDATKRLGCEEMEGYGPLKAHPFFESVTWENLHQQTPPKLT

Row | Compound | IC50 (PDK1; inhibition of PDK1 in vitro) | EC50 [1, 2] | also measured
1 | C[C@H](NC(=O)c1cc(C#N)cnc1NCc1ccc(-c2ccc(NCCO)nc2)cc1)c1ccc(F)cc1 [Example 222, 5-Cyano-N-[(S)-1-(4-fluoro-phenyl)-ethyl]-2-{4-[6-(2-hydroxy-ethylamino)-pyridin-3-yl]-benzylamino}-nicotinamide] | 0.1 to 1 µM | 1 to 10 µM | 
2 | COCC#Cc1cnc(NCc2ccc(-c3ccc4ncnc(N)c4c3)s2)c(C(=O)N[C@@H](C)c2ccc(F)c(F)c2)n1 [Ex. 10.8, 3-({[5-(4-aminoquinazolin-6-yl)thiophen-2-yl]methyl}amino)-N-[(1S)-1-(3,4-difluorophenyl)ethyl]-6-(3-methoxyprop-1-yn-1-yl)pyrazine-2-carboxamide] |  |  | IC50 (PDK1; [3]): 0.1 to 1 µM; EC50 [1, 4]: < 1 µM
3 | C[C@H](NC(=O)c1nccnc1NCc1ccc(-c2cnc3[nH]c(=O)[nH]c3c2)cc1)c1ccc(F)cc1 [Example 357, (S)-N-(1-(4-fluorophenyl)ethyl)-3-(4-(2-oxo-2,3-dihydro-1H-imidazo[4,5-b]pyridin-6-yl)benzylamino) pyrazine-2-carboxamide] | < 0.1 µM | < 1 µM | 
4 | C[C@H](NC(=O)c1cc(C#N)cnc1NCc1ccc(-c2nc3c(N)ncnc3[nH]2)cc1)c1ccc(F)cc1 [Example 113, (S)-2-(4-(6-amino-9H-purin-8-yl)benzylamino)-5-cyano-N-(1-(4-fluorophenyl)ethyl) nicotinamide] | < 0.1 µM |  | EC50 [1, 5]: > 10 µM
5 | C[C@H](NC(=O)c1cc(C#N)cnc1NCc1ccc(-c2c[nH]c3ncnc(N)c23)c(F)c1)c1ccc(F)cc1 [Example 100, (S)-2-(4-(4-amino-7H-pyrrolo[2,3-d]pyrimidin-5-yl)-3-fluorobenzylamino)-5-cyano-N-(1-(4-fluorophenyl)ethyl) nicotinamide] | < 0.1 µM |  | EC50 [1, 5]: 1 to 10 µM
6 | C[C@H](NC(=O)c1cccnc1NCc1ccc(-c2ccc3ncnc(NC4CC4)c3c2)s1)c1ccc(F)c(F)c1 [Example 386, 2-{[5-(4-Cyclopropylamino-quinazolin-6-yl)-thiophen-2-ylmethyl]-amino}-N-[(S)-1-(3,4-difluoro-phenyl)-ethyl]-nicotinamide] | < 0.1 µM | 1 to 10 µM | 
7 | CNc1ncc2cc(O[C@@H](C)CNc3ncc(C#N)nc3C(=O)N[C@@H](C)c3ccc(F)c(F)c3)ccc2n1 [Example 254, 6-cyano-N-((S)-1-(3,4-difluorophenyl)ethyl)-3-((S)-2-(2-(methylamino)quinazolin-6-yloxy)propylamino)pyrazine-2-carboxamide] | 0.1 to 1 µM |  | EC50 [1, 6]: 1 to 10 µM
8 | COC(=O)c1cc(-c2ccc(CNc3ncc(C#N)cc3C(=O)N[C@@H](C)c3ccc(F)cc3)cc2)cnc1N [Example 103, (S)-methyl 2-amino-5-(4-((5-cyano-3-(1-(4-fluorophenyl)ethylcarbamoyl)pyridin-2-ylamino)methyl)phenyl)nicotinate] | < 0.1 µM | 1 to 10 µM | 
9 | Nc1ncnc2c1c(-c1ccc(CNc3ncc(C(F)(F)F)cc3C(=O)Nc3ccc(F)cc3)cc1)cn2CCCCO [Example 404, 2-(4-(4-amino-7-(4-hydroxybutyl)-7H-pyrrolo [2,3-d]pyrimidin-5-yl)benzylamino)-N-(4-fluorophenyl)-5-(trifluoromethyl)nicotinamide] | < 0.1 µM | 1 to 10 µM | 
10 | Nc1ncnn2c(-c3ccc(CNc4ncc(C(F)(F)F)cc4C(=O)Nc4ccc(F)cc4)cc3)ccc12 [Example 180, 2-[4-(4-Amino-pyrrolo [2,1-f][1,2,4]triazin-7-yl)-benzylamino]-N-(4-fluoro-phenyl)-5-trifluoromethyl-nicotinamide] | < 0.1 µM | 1 to 10 µM | 
11 | COc1cc(NC(=O)c2cccnc2NCc2ccc(-c3ccc4ncnc(N)c4c3)s2)cc(C(F)(F)F)c1 [Example 3.52, 2-({[5-(4-aminoquinazolin-6-yl)thiophen-2-yl]methyl}amino)-N-[3-methoxy-5-(trifluoromethyl)phenyl]pyridine-3-carboxamide (TFA salt)] |  |  | IC50 (PDK1; [3]): > 5 µM; EC50 [1, 4]: > 10 µM
12 | CNc1n[nH]c2ncc(-c3ccc(CNc4ncc(C#N)nc4C(=O)N[C@@H](C)c4ccc(F)c(F)c4)cc3)cc12 [Example 52, (S)-6-cyano-N-(1-(3,4-difluorophenyl)ethyl)-3-(4-(3-(methylamino)-1H-pyrazolo[3,4-b]pyridin-5-yl)benzylamino)pyrazine-2-carboxamide] | < 0.1 µM | < 1 µM | 
13 | C[C@H](NC(=O)c1nc(C#N)cnc1NCC1CCC(c2cn(C)c3ncnc(N)c23)CC1)c1ccc(F)c(F)c1 (some centres unmarked) [Example 339] | 0.1 to 1 µM |  | EC50 [1, 6]: > 10 µM
14 | Nc1ncc(-c2ccc(CNc3ncc(C(F)(F)F)cc3C(=O)Nc3ccc(F)cc3)cc2)nc1NCC(O)CO (centres unmarked) [Example 245, 2-{4-[5-Amino-6-(2,3-dihydroxy-propylamino)-pyrazin-2-yl]-benzylamino}-N-(4-fluoro-phenyl)-5-trifluoromethyl-nicotinamide] | < 0.1 µM | < 1 µM | 
15 | C[C@H](NC(=O)c1nc(C#N)cnc1NCc1ccc(-c2cnc(N)c(NCCN)n2)cc1)c1ccc(F)c(F)c1 [Example 195, 3-{4-[5-Amino-6-(2-amino-ethylamino)-pyrazin-2-yl]-benzylamino}-6-cyano-pyrazine-2-carboxylic acid [(S)-1-(3,4-difluoro-phenyl)-ethyl]-amide] | < 0.1 µM | < 1 µM | 
16 | C=C(C)c1cnc(NCc2ccc(-c3ccc4ncnc(N)c4c3)s2)c(C(=O)NCc2ccc(F)c(F)c2)c1 [Ex. 8.13, 2-({[5-(4-aminoquinazolin-6-yl)thiophen-2-yl]methyl}amino)-N-(3,4-difluorobenzyl)-5-(prop-1-en-2-yl)pyridine-3-carboxamide] |  |  | IC50 (PDK1; [3]): < 0.1 µM; EC50 [1, 4]: < 1 µM
17 | N#Cc1ccc(NC(=O)c2cccnc2NCc2ccc(-c3ccc4ncnc(N)c4c3)s2)cc1 [Example 3.33, 2-({[5-(4-aminoquinazolin-6-yl)thiophen-2-yl]methyl}amino)-N-(4-cyanophenyl)pyridine-3-carboxamide (TFA salt)] |  |  | IC50 (PDK1; [3]): 0.1 to 1 µM; EC50 ([1]; Homo sapiens, PC-3, 2 h, inhibition of P308 Akt in PC-3 cells, MSD): > 10 µM
18 | CNc1ncc2cc(C#CCNc3ncc(C#N)cc3C(=O)N[C@@H](C)c3ccc(F)cc3)ccc2n1 [Example 255, (S)-5-cyano-N-(1-(4-fluorophenyl)ethyl)-2-(3-(2-(methylamino)quinazolin-6-yl)prop-2-ynylamino)nicotinamide] | < 0.1 µM | < 1 µM | 
19 | C[C@H](NC(=O)c1cc(C#N)cnc1NCc1ccc(-c2cnc(N)c(N)c2)cc1)c1ccc(F)cc1 [Example 102, (S)-5-cyano-2-(4-(5,6-diaminopyridin-3-yl)benzylamino)-N-(1-(4-fluorophenyl)ethyl) nicotinamide] | < 0.1 µM | 1 to 10 µM | 
20 | C[C@H](NC(=O)c1cn(-c2ccccc2)nc1NCc1ccc(-c2ccc3ncnc(N)c3c2)s1)c1ccc(F)c(F)c1 [Ex. 11.2] |  |  | IC50 (PDK1; [3]): 0.1 to 1 µM; EC50 [1, 4]: > 10 µM
21 | Nc1ncnc2ccc(-c3ccc(CNc4ncc(NS(=O)(=O)C(F)(F)F)cc4C(=O)NCc4ccc(F)c(F)c4)s3)cc12 [Example 8.6.3] |  |  | IC50 (PDK1; [3]): 0.1 to 1 µM; EC50 [1, 4]: 1 to 10 µM
22 | C[C@H](NC(=O)c1cc(C#N)cnc1NCc1ccc(-c2cnc(N)c(NCCN)n2)cc1)c1ccc(F)cc1 [Example 199, 2-{4-[5-Amino-6-(2-amino-ethylamino)-pyrazin-2-yl]-benzylamino}-5-cyano-N-[(S)-1-(4-fluoro-phenyl)-ethyl]-nicotinamide] | < 0.1 µM | < 1 µM | 
23 | Nc1n[nH]c2ncc(-c3ccc(CNc4ncc(C(F)(F)F)cc4C(=O)Nc4ccc(C(F)(F)F)cc4)cc3)cc12 [Example 296] | < 0.1 µM | < 1 µM | 
24 | Nc1ncnc2ccc(-c3ccc(CNc4nccnc4C(=O)NCc4ccc(F)cc4)s3)cc12 [Example 3.68, 3-({[5-(4-aminoquinazolin-6-yl)thiophen-2-yl]methyl}amino)-N-(4-fluorobenzyl) pyrazine-2-carboxamide (TFA salt)] |  |  | IC50 (PDK1; [3]): < 0.1 µM; EC50 [1, 4]: 1 to 10 µM
25 | O=C(Nc1ccc(F)cc1)c1cc(C(F)(F)F)cnc1NCc1ccc(-c2cnc3[nH]ncc3c2)cc1 [Example 156, 2-(4-(1H-pyrazolo[3,4-b]pyridin-5-yl)benzylamino)-N-(4-fluorophenyl)-5-(trifluoromethyl)nicotinamide] | < 0.1 µM | < 1 µM | 
26 | C[C@H](NC(=O)c1cc(C#N)cnc1NCc1ccc(-c2cnc(N)c(C(=O)N(C)C)n2)cc1)c1ccc(F)cc1 [Example 210, (S)-3-amino-6-(4-((5-cyano-3-(1-(4-fluorophenyl)ethylcarbamoyl)pyridin-2-ylamino)methyl)phenyl)-N,N-dimethylpyrazine-2-carboxamide] | < 0.1 µM | 1 to 10 µM | 
27 | C[C@H](NC(=O)c1cc(C#N)cnc1NCc1cnc(-c2cnc3[nH]ncc3c2)cn1)c1ccc(F)cc1 [Example 63, 5-Cyano-N-[(S)-1-(4-fluoro-phenyl)-ethyl]-2-{[5-(1H-pyrazolo[3,4-b]pyridin-5-yl)-pyrazin-2-ylmethyl]-amino}-nicotinamide] | < 0.1 µM | > 10 µM | 
28 | C[C@H](NC(=O)c1cc(C#N)cnc1NCc1ccc(-c2cnc(N)c(CCCCN)n2)cc1)c1ccc(F)cc1 [Example 71, 2-{4-[5-Amino-6-(4-amino-butyl)-pyrazin-2-yl]-benzyl-amino}-5-cyano-N-[(S)-1-(4-fluoro-phenyl)-ethyl]-nicotinamide] | < 0.1 µM | < 1 µM | 
